Series [1] has as its target Cytochrome P450 2D6 (Homo sapiens, UniProt P10635).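 Also: CYP2D6 member of a cytochrome P450 panel assay.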
Series [2] can be described thus: Luminescence Cell-Based Dose Confirmation HTS to Identify Inhibitors of Platelet Dense Granule Release. [Related pubchem assays: 1663 (Primary HTS), 1678 (Summary of Project)]. Type of series: functional.
For series [3], the target named is Cytochrome P450 2C19 (Homo sapiens, UniProt P33261). The experiment in a line: Cytochrome panel assay with activity outcomes. Panel member name: p450-cyp2c19 Compounds with AC50 equal or less than 10 uM are considered active. The format is functional. The conditions noted are these: read-out: AC50.
Cytochrome P450 2C19, sequence (P33261 whole entry): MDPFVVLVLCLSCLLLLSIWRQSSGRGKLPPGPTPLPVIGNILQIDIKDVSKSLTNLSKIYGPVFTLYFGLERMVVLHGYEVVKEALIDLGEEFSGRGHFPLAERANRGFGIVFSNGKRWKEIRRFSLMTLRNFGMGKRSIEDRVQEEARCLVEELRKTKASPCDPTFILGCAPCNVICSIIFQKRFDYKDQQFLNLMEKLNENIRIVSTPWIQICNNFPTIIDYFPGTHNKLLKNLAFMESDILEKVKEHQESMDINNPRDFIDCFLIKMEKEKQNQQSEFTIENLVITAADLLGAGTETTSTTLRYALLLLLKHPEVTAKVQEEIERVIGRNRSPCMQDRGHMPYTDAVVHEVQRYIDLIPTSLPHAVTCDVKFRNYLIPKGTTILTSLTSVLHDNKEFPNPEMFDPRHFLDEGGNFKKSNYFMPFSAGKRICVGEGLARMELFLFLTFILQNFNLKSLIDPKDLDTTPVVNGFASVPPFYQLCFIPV
In series [4] the target is Luciferin 4-monooxygenase (Photinus pyralis, UniProt P08659). The experiment in a line: inhibition of purified Photinus pyralis luciferase – biochemical, luminescence, dose response (AID 1891).
Luciferin 4-monooxygenase, sequence (P08659 whole entry): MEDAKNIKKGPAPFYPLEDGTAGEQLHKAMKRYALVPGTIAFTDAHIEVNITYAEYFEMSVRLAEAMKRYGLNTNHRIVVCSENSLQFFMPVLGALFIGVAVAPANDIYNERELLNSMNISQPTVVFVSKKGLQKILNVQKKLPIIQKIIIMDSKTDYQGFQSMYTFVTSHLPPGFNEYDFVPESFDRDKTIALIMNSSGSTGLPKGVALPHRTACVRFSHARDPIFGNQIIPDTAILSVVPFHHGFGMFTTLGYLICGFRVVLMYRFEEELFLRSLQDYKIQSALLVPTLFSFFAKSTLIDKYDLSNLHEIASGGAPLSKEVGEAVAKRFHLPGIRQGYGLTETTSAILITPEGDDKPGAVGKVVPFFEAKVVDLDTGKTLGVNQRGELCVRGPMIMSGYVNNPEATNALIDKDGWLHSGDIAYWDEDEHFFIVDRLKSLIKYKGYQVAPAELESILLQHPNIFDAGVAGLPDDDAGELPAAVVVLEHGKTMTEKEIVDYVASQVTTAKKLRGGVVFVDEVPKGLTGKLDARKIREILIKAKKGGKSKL
Series [5] addresses Cytochrome P450 2C9 (Homo sapiens, UniProt P11712).
Series [6] addresses Nucleotide-binding oligomerization domain-containing protein 1 (Homo sapiens, UniProt Q9Y239). The series can be described thus: blockers of NOD1 pathway activity – revised, SAR follow-up (AID 2333). Type of series: functional.
The subject of series [7] is INS1. The experiment in a line: INS-1E survival protection against cytokine death – cell-based, luminescence, retest, dose response (AID 449756).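 Also: cell death triggered by IL-1 beta plus TNF-alpha plus IFN-gamma mixture; protective hits raise ATP signal compared with cytokine alone wells.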 The format is functional. The conditions noted are these: Rattus norvegicus.
The target of series [8] is Tumor necrosis factor (Homo sapiens, UniProt P01375). The series can be described thus: analog potency on TNFa NF-kB signaling – cell-based, revised, SAR follow-up (AID 2337). The format is functional.
Tumor necrosis factor, sequence (P01375 whole entry): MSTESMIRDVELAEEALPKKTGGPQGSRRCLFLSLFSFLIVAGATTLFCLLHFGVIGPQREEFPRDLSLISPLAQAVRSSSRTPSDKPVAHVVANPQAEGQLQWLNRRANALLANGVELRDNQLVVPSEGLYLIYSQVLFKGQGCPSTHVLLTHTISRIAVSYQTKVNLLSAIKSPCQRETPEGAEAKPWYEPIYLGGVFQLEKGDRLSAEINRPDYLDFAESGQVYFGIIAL
For series [9], the system named is HEK293. The experiment in a line: cells. The following applies: Homo sapiens.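 Also: cells exposed to compound for 14 hours overnight before viability readout.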
The nature of series [10]: non-specific 3'UTR reporter inhibition in Clone20-Shn3RL – cell-based, Renilla luciferase, cherry-picked, counter-screen for Shn3 inhibitor project, dose response (AID 624133). The format is functional. A general note: Counterscreens check selectivity or assay interference.
Series [11] has as its target T1, Delta-type opioid receptor (Homo sapiens, UniProt P41143). The experiment in a line: HTS Image-Based Screen for Antagonists of the DOR Receptor. [Related pubchem assays (depositor defined):AID1777, AID1785, AID1786, AID2133]. Type of series: functional.
The nature of series [12]: alpha-synuclein stem-loop luciferase translation blockers – H4 neuroglioma cells, luminescence, confirmation (AID 1988). Type of series: functional, cell-based.
The target of series [13] is T2, Beta-galactosidase (Escherichia coli, UniProt Q8VNN2). The format is functional.
T2 sequence (Q8VNN2 whole entry): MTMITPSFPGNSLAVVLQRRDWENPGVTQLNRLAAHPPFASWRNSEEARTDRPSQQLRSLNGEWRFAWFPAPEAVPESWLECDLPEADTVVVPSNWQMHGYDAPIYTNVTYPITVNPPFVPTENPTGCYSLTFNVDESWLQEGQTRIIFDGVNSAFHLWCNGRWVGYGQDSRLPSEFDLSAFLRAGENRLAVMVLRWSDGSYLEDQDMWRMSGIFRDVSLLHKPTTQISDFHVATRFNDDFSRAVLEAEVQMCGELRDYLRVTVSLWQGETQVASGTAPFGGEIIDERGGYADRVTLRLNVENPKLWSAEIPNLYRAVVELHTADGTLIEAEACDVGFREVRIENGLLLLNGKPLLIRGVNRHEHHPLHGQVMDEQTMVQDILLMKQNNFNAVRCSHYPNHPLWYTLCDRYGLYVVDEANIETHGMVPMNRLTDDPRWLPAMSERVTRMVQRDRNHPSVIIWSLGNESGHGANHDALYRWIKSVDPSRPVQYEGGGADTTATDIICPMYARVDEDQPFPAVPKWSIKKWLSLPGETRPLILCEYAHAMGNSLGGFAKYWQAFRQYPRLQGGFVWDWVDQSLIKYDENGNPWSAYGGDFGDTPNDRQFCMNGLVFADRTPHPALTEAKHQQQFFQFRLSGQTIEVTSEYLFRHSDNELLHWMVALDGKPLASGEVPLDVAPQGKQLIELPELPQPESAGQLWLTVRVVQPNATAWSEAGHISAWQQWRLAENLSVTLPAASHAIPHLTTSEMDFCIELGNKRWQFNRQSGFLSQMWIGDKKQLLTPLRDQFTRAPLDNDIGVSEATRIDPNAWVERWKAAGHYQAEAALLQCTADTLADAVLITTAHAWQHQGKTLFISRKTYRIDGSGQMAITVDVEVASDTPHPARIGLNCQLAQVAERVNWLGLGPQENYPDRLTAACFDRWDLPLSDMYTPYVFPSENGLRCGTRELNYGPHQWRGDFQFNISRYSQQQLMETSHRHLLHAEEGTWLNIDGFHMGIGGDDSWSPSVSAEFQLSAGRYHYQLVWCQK
In series [14] the target is T2, Beta-galactosidase. The series can be described thus: PubChem AID 485352. The format is functional.
The nature of series [15]: HEK-293T viability loss after treatment – luminescence, T-cell screen hits, cytotoxicity control for TCR NF-kB inhibitor project, dose response (AID 489026).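 Also: cells exposed to compound about 14 hours before the viability readout.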 Type of series: functional, cell-based.
The nature of series [16]: cells. The format is functional.
Series [17] deals with T3, Kappa-type opioid receptor (Homo sapiens, UniProt P41145). Type of series: functional.
T3 sequence (P41145 whole entry): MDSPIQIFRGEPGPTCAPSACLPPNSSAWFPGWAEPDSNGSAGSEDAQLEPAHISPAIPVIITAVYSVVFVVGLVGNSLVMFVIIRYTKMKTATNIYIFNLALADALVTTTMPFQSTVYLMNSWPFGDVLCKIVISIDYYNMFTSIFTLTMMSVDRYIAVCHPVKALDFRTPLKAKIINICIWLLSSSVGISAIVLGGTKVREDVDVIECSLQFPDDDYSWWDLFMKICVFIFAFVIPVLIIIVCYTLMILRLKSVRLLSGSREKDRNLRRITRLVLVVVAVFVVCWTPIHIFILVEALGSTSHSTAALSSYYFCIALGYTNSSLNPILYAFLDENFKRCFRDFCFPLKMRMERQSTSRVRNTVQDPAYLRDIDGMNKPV
The subject of series [18] is BJ. The series can be described thus: BJ-TERT-LT-ST fibroblast viability loss – cell-based, RAS-independent, luminescence, dose response (AID 1935).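 Also: BJ fibroblasts immortalized with TERT plus LT and ST oncogenes.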 Type of series: functional. The following applies: Homo sapiens.
Series [19] deals with T4, Type-1 angiotensin II receptor (Homo sapiens, UniProt P30556).
T4 sequence (P30556 whole entry): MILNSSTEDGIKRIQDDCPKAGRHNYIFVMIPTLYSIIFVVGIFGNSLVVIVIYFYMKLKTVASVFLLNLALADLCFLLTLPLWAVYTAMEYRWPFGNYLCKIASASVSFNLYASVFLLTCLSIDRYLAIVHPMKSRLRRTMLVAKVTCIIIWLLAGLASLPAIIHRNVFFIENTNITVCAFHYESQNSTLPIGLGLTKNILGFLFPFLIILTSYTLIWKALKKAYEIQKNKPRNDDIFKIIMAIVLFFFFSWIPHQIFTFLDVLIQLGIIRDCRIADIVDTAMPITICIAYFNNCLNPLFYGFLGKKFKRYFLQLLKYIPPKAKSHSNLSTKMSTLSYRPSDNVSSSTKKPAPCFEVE
The experiment in a line: antagonism of angiotensin II type 1 receptor – cell-based, uHTS hits, selectivity assay for APJ receptor antagonist project, dose response (AID 463214).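 Also: antagonist potency against angiotensin II stimulated AT1 response.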 The format is functional.

In series [20] the target is T5, Protein RecA (Mycobacterium tuberculosis, UniProt P9WHJ3).
T5 sequence (P9WHJ3 whole entry): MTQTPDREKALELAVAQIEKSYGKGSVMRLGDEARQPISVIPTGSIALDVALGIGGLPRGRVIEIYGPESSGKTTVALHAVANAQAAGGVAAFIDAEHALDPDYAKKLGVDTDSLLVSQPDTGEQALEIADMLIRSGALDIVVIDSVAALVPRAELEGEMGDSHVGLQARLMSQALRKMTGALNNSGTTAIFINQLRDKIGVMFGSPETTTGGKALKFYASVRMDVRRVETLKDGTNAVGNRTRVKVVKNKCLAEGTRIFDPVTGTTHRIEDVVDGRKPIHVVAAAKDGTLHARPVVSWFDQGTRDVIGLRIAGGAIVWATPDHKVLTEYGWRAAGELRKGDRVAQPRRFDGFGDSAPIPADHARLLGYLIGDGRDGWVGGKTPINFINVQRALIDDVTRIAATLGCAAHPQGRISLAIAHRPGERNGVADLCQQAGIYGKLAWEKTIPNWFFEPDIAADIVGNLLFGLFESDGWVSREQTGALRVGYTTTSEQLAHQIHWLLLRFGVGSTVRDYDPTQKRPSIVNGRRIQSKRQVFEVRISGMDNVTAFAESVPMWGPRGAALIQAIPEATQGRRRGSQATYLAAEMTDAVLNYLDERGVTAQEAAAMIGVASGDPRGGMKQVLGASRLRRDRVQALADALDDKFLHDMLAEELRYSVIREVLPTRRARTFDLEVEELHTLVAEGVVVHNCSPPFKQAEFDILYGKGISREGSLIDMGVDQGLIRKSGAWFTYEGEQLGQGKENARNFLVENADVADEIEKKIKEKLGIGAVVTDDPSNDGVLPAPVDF
The series can be described thus: Fluorescence Cell-Free Homogeneous Dose Retest to Identify Inhibitors of RecA-Intein Splicing Activity. [Related pubchem assays (depositor defined):AID2097, AID2223, AID489010, AID492950]. The format is functional.

Series [21] in a line: luciferase reporter signal suppression in cells – H4 neuroglioma cells, luminescence, dose response (AID 1990). The format is functional, cell-based. On the technique in general: In a reporter assay the amount or activity of a reporter protein is the signal.
Series [22] addresses T3, Kappa-type opioid receptor. The format is functional. This is another data set of the same source.
Series [23] relates to BJ. The experiment in a line: cells. Type of series: functional, cell-based. The following applies: Homo sapiens.
Series [24] concerns the target T1, Delta-type opioid receptor. The series can be described thus: HTS Image-Based Screen for Agonists of the DOR Receptor. [Related pubchem assays (depositor defined):AID1777, AID1786, AID2133]. The format is functional.
Series [25] can be described thus: DRD fibroblast viability loss – cell-based, non-viral oncogenic, luminescence, dose response (AID 1934). The format is functional. The following applies: Homo sapiens.
Series [26] is described as follows: reduction of Shn3 3'UTR-driven luciferase in osteoblasts – cell-based, Clone20 osteoblasts, firefly luciferase, cherry-picked, dose response (AID 624132).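 Also: firefly luciferase luminescence from reporter carrying the Shn3 3'UTR in osteoblasts.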 Type of series: functional.
The test system of series [27] is BJ. The experiment in a line: BJ-TERT fibroblast viability loss – cell-based, RAS-independent, luminescence, dose response (AID 1933). Type of series: functional. The following applies: Homo sapiens.
The target of series [28] is Paired box protein Pax-8 (Homo sapiens, UniProt Q06710). The experiment in a line: PAX8 transcriptional activity inhibition in RMG-I – RMG-I cells, luciferase, cherry-pick, dose response (AID 687027).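 Also: luciferase reporter driven by Pax8 target thyroperoxidase promoter measured by SteadyGlo luminescence.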 The format is functional, cell-based.
Paired box protein Pax-8, sequence (Q06710 whole entry): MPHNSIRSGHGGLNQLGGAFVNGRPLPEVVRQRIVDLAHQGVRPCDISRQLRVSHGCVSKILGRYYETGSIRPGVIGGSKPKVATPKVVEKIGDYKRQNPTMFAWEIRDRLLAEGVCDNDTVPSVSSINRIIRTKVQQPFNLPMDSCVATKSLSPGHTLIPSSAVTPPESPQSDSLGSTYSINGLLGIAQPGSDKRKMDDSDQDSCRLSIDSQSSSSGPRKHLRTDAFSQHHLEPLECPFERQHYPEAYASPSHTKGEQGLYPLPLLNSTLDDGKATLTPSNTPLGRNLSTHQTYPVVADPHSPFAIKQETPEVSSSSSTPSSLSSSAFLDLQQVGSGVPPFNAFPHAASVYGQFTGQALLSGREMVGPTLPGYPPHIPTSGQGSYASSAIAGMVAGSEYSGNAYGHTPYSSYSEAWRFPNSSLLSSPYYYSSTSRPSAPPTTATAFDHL
Series [29] is described as follows: Luminescence Cell-Based Dose Response HTS to Identify Inhibitors of 5'UTR Stem-Loop Driven Prion Protein mRNA Translation in H4 Neuroglioblastoma Cells. [Related pubchem assays: 1827 (Project Summary), 1813 (Primary HTS)]. Type of series: functional.
The target of series [30] is Mu-type opioid receptor (Homo sapiens, UniProt P35372). The experiment in a line: HTS Image-Based Screen for Agonists of the MOR Receptor. [Related pubchem assays (depositor defined):AID1777, AID1785, AID1786, AID2133]. Type of series: functional.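 Also: imaging of beta-arrestin GFP recruitment into spots after receptor activation.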
Mu-type opioid receptor, sequence (P35372 whole entry): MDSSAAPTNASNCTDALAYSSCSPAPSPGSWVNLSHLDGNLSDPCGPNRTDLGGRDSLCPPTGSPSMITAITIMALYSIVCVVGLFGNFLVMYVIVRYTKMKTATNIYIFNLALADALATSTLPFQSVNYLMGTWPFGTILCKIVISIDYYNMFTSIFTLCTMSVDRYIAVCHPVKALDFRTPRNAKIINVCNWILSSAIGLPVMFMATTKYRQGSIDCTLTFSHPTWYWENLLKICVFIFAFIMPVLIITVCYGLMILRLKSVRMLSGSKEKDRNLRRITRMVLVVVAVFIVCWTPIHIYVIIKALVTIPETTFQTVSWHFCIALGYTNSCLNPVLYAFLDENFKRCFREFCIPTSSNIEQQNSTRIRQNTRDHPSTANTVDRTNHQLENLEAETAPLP
Series [31] deals with T6, Replicative DNA helicase DnaB (Mycobacterium tuberculosis, UniProt P9WMR3).
T6 sequence (P9WMR3 whole entry): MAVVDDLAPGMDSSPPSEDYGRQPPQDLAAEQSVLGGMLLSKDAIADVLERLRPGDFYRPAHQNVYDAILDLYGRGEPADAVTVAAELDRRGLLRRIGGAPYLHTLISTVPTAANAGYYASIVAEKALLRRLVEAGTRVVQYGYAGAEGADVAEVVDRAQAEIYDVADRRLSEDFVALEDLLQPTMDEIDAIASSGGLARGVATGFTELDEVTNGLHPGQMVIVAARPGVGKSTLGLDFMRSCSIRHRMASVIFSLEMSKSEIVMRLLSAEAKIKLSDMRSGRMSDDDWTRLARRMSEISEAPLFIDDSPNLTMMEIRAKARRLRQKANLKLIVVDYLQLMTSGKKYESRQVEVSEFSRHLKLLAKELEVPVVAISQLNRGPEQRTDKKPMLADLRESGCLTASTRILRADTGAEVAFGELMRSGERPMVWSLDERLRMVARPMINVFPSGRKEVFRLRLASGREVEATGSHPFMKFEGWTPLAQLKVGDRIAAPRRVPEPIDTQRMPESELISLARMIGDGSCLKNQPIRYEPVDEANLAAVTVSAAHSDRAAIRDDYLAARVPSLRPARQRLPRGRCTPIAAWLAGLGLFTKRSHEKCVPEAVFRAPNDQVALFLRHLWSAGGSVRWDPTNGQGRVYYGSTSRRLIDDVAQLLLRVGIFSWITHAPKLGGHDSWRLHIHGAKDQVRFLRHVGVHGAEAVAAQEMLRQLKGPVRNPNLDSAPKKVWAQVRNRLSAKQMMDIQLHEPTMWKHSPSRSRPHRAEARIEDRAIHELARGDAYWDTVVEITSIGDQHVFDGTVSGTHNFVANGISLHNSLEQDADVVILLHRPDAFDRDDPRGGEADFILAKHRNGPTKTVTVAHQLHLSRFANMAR
The series can be described thus: DnaB intein splicing inhibitors, dose response, biochemical, cell-free fluorescence (AID 449749). The format is functional.

Series [32] is described as follows: THP-1 cell cytotoxicity, dose response, cytotoxicity control for non-replicating M. tuberculosis project (AID 489025). The format is functional.
Series [33] is described as follows: loss of viability in HepG2 cells – cell-based, CellTiter-Glo, cherry-picked, cytotoxicity control for Shn3 inhibitor project, dose response (AID 624134). Type of series: functional. On the technique in general: Cellular ATP, detected with luciferase, serves as a proxy for viable cell number.
Series [34] is described as follows: general cell-killing toxicity readout – plate reader, dry powder samples, cytotoxicity control for PAX8 inhibitor project, dose response (AID 743021). Type of series: functional, cell-based.
Series [35] addresses Keap1/Nrf2 (Homo sapiens, UniProt Q14145). The experiment in a line: disruptors of Keap1 binding to Nrf2 peptide – biochemical, fluorescence polarization, cherry-picked samples, dose response (AID 588683).

Each structure is given as a SMILES string. pIC50: −log10 of the molar value. Active and inactive are the calls of the source. Where only a bound is given, the exact number is not on record here.

Cytochrome P450 2D6, sequence (P10635 whole entry): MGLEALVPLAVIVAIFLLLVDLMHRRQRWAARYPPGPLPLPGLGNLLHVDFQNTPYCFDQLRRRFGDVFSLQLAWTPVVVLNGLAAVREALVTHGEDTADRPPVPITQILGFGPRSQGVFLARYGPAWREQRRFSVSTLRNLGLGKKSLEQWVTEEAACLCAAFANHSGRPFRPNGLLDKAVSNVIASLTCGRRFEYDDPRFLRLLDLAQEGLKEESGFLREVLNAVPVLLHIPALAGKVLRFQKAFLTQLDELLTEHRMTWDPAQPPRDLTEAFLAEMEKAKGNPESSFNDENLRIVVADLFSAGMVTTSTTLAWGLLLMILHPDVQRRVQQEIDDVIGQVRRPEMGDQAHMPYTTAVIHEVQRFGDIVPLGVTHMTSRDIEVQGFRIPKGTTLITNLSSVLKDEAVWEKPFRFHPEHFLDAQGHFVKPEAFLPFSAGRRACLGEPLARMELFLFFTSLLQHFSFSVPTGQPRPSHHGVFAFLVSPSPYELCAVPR
T1 sequence (P41143 whole entry): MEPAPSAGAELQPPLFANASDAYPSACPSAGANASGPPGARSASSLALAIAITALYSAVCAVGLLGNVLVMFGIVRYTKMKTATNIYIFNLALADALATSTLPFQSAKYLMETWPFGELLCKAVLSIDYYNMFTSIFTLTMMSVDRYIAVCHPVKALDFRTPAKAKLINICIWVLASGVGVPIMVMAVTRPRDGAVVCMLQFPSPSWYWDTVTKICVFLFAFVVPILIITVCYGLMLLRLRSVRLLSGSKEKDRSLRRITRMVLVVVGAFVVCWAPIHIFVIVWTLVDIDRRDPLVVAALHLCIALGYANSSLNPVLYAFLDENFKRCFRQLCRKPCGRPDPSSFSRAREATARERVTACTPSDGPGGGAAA
Cytochrome P450 2C9, sequence (P11712 whole entry, the tested form may be a part): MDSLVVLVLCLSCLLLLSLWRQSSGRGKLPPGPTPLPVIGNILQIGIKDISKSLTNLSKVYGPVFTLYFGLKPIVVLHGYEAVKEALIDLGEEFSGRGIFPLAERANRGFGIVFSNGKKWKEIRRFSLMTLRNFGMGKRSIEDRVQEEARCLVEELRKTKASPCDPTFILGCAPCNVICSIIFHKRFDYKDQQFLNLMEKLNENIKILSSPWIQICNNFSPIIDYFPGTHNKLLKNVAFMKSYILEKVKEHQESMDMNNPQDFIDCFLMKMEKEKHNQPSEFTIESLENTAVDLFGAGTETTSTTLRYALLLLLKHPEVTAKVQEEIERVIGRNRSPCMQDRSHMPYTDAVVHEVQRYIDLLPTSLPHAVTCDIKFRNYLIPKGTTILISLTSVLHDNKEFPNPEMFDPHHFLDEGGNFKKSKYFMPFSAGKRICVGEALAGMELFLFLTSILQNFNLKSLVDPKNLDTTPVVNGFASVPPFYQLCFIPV

In the case of `C#C[C@H](N)CCC(=O)O`, in series [1], the concentration at half-maximal activity (AC50) entry is “inconclusive”.

On to `Cc1ccc(NC(=O)c2cc(NC(=O)CCCC(=O)O)ccc2Cl)cc1Cl`, for which the concentration giving a half-maximal response (EC50) in series [2] and in series [4] was > 112 µM (not active) in each case. For the same compound, the half-maximal activity concentration (AC50) entry in [1] was “inconclusive”; in series [3], 0.891 µM (inconclusive); in [5], 15.8 µM (inconclusive).

As to `CC(=O)c1ccc(N2CCN(S(=O)(=O)c3ccc4c(c3)CC(C)N4C(C)=O)CC2)cc1` (configuration not stated), the IC50 in [6] was 4.42 µM (active); in series [8], 6.5 µM (active); in series [9] it was > 20 µM (inactive). The concentration at half-maximal activity (AC50) in series [7] is 6.79 µM (active).

Consider `CCS(=O)(=O)c1ncc(Cl)c(C(=O)Nc2ccc(S(=O)(=O)N(C)c3ccccc3)cc2)n1`, for which the AC50 in series [10] is 1.91 µM (active); in series [7], 5.7 µM (active); in series [26] it was 0.308 µM (active); in [28], 5.12 µM (active); in [31], 1.14 µM (active); in series [33] it was 10.7 µM (active). Further, in series [34], the AC50 is 21.2 µM (active). Moreover, the IC50 in series [11] was 9.44 µM (active); in series [15], 59.5 µM (inactive); in series [16], > 50 µM (active); in [17] it was 6.56 µM (active); in series [19], 3.56 µM (active). The concentration for a half-maximal effect (EC50) is 5.71 µM (active) in series [12]; > 31.5 µM (inactive) in series [13]; > 40 µM (inactive) in [14]; 5.62 µM (inconclusive) in series [18]; 1 µM (active) in [20]; > 120 µM (not active) in series [21]. In addition, the EC50 in series [23] was 6.38 µM (inconclusive); in series [24], > 32 µM (inactive); in series [25], 4.16 µM (active); in series [27], 0.784 µM (active); in series [29] it was 8.51 µM (active); in [30], > 32 µM (inactive). The same compound showed a pIC50 in [22] of 5.38. In [32], the CC50 is 10.6 µM (active).

Turning to `CCN1C(=O)NC(=O)/C(=C\c2cn(CC(=O)N3CCCCC3)c3ccccc23)C1=O`, the half-maximal activity concentration (AC50) in series [35] was 35.9 µM (active).

Usually AC50 stands for the concentration at which the activity in the assay is half-maximal. By EC50 is commonly meant the concentration giving half of the maximal effect. Broadly, the IC50 is the concentration at which inhibition is half-maximal. For orientation: pIC50 means the IC50 on a negative log10 scale, so that one unit is a factor of ten. High values mean a small IC50, low ones a large IC50. In general, CC50 refers to the concentration that lowers cell viability or growth by half.

The values are drawn from ChEMBL document CHEMBL1201862, “PubChem BioAssay data set” (2004).
